Counter-ions that a name gives are not always drawn.
Legend:
[1] = tested on: urease in New York soil (Cazenovia silt loam, pH 7.0); test: Urease Inhibition Efficacy Test in New York soil (Cazenovia silt loam); assay type: biochemical; settings: 40 micrograms test compound per gram soil; 42.8 mg urea per 20 g air-dry soil; incubated at 25° C. for three days; remaining urea; run in triplicate
Procedure: (§1) Efficacy tests were conducted to evaluate the efficacy of certain representative aminophenol compounds as urease inhibitors. The inhibition tests were run in New York soil (Cazenovia silt loam, pH 7.0) or in Wisconsin soil (Plano silt loam, pH 5.4)
(§2) Evaluations (run in triplicate) consisted of applying 800 micrograms of the test compound in 5 ml of water and 42.8 mg of urea in 1 mL of water to 20 g of air-dry soil in a glass bottle. The bottle was capped with perforated aluminum foil and incubated at 25° C.C for three days prior to extraction with 100 mL of a 2M KCl solution containing 0.5 mg of phenylmercuric acetate. The extracts were then analyzed for remaining urea using an autoanalyzer. Percent inhibition was calculated as % Inhibition=[1-(A-B/A-C)]×100 where A is urea recovered from unincubated sample (urea added to soil and immediately extracted); B is urea recovered from inhibited sample; and C is urea recovered from the control (uninhibited sample).

[2] = tested on: urease in Wisconsin soil (Plano silt loam, pH 5.4); test: Urease Inhibition Efficacy Test in Wisconsin soil (Plano silt loam); assay type: biochemical; settings: 40 micrograms test compound per gram soil; 42.8 mg urea per 20 g air-dry soil; incubated at 25° C. for three days; remaining urea; run in triplicate
Procedure: as §1, §2

**Q.** With 2,6-Dichloroiminophenol, sodium salt as the compound, how does the “% Inhibition 40 micrograms per gram soil Cazenovia pH 7.0” value [1] read?
**A.** 69%

**Q.** With `Nc1ccccc1O` [2-aminophenol] as the compound, how does the “% Inhibition 40 micrograms per gram soil Cazenovia pH 7.0” value [1] read?
**A.** 8%

**Q.** With `O=C(Nc1ccc(O)cc1)c1ccccc1` [4'-Hydroxybenzanilide] as the compound, how does the “% Inhibition 40 micrograms per gram soil Wisconsin pH 5.4” value [2] read?
**A.** 14%

**Q.** And the “% Inhibition 40 micrograms per gram soil Cazenovia pH 7.0” value [1]?
**A.** 50%

**Q.** With `CN(C)c1ccc(O)cc1` [4-(N,N--dimethylamino)-phenol hydrochloride] as the compound, how does the “% Inhibition 40 micrograms per gram soil Wisconsin pH 5.4” value [2] read?
**A.** 49%

**Q.** And the “% Inhibition 40 micrograms per gram soil Cazenovia pH 7.0” value [1]?
**A.** 77%

**Q.** `CNc1ccc(O)cc1` [4-(N--methylamino)phenol sulfate] was tested. Which “% Inhibition 40 micrograms per gram soil Wisconsin pH 5.4” value [2] did it give?
**A.** 55%

**Q.** And the “% Inhibition 40 micrograms per gram soil Cazenovia pH 7.0” value [1]?
**A.** 82%

**Q.** For `Oc1ccc(Nc2ccccc2)cc1` [4-(N--phenyl)aminophenol], which “% Inhibition 40 micrograms per gram soil Wisconsin pH 5.4” value [2] is on record?
**A.** 53%

**Q.** And the “% Inhibition 40 micrograms per gram soil Cazenovia pH 7.0” value [1]?
**A.** 69%

**Q.** How did the “% Inhibition 40 micrograms per gram soil Cazenovia pH 7.0” value [1] turn out when `Nc1ccc(O)cc1` [4-aminophenol] was run?
**A.** 46%

**Q.** `O=C(O)CNc1ccc(O)cc1` [N--(4-Hydroxyphenyl)glycine] was tested. Which “% Inhibition 40 micrograms per gram soil Wisconsin pH 5.4” value [2] did it give?
**A.** 61%

**Q.** And the “% Inhibition 40 micrograms per gram soil Cazenovia pH 7.0” value [1]?
**A.** 82%

From patent publication US4517005A, “Aminophenol urease inhibitors and urease inhibited urea based fertilizer compositions” (Allied Corporation, priority 1983, dated 1985)
